pIC50: −log10 of the molar value.
molecular target: human chemokine receptor CXCR7 (Homo sapiens (Human), UniProt P25106); assay: Tango CXCR7-bla U2OS beta-arrestin recruitment assay (beta-lactamase reporter, FRET), antagonism of CXCL12/SDF1-α; assay type: cell-based; conditions: antagonistic effect on CXCR7; Tango CXCR7-bla U2OS cells, CXCL12/SDF1-α at its EC80;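 note: compounds preincubated 15 min before CXCL12 addition, then 22 h at 37 °C, FRET emission ratio read with CCF4-AM substrate after 2 h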
Sequence (P25106 whole entry): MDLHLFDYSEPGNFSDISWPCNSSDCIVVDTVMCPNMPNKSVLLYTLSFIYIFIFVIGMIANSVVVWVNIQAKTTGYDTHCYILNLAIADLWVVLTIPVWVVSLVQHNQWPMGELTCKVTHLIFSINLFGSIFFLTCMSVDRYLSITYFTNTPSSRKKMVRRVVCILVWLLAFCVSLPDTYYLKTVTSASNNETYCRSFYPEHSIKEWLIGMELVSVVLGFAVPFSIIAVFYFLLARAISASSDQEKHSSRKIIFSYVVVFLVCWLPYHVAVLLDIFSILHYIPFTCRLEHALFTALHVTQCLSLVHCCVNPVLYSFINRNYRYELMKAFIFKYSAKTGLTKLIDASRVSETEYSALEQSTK

First: CC1(NC(=O)[C@H]2CN(C3CCCCC3)CC[C@@H]2NC(=O)c2cc(-c3ccc(F)cc3F)on2)CCC1 [Example 4.006]
Second: CC1(NC(=O)[C@@H]2CN(C3CCCCC3)CC[C@H]2NC(=O)c2cc(-c3ccc(F)cc3F)on2)CCC1 [Example 4.016]
The pIC50 of the first is 0.50 log units higher: 6.83 for the first, 6.33 for the second.

Compared with `CC(NC(=O)[C@H]1CN(C2CCCCC2)CC[C@@H]1NC(=O)c1cc(-c2ccc(F)cc2F)on1)c1ncon1` (stereo partly shown) [Example 4.007], `CC(NC(=O)[C@H]1CN(C2CCCC2)CC[C@@H]1NC(=O)c1cc(-c2ccc(F)cc2F)on1)c1nc[nH]n1` (stereo partly shown) [Example 4.038] is 1.00 log units lower in pIC50: 7.28 for the first, 6.28 for the second. The first is the more potent here.

Going from `CC(NC(=O)[C@H]1CN(C2CCCCC2)CC[C@@H]1NC(=O)c1cc(-c2ccc(F)cc2F)on1)c1ccc(F)cn1` (stereo partly shown) [Example 4.008] to `C[C@@H](NC(=O)[C@H]1CN(C2CCCC2)CC[C@@H]1NC(=O)c1cc(-c2ccc(F)cc2F)on1)c1cccnc1` [Example 4.042], the pIC50 rises from 6.82 to 7.13 (0.31 log units). The second is the more potent here.

Compared with `C[C@@H](NC(=O)[C@@H]1CN(C2CCCCC2)CC[C@H]1NC(=O)c1cc(-c2ccc(F)cc2F)on1)C1CCC1` [Example 4.009], `C[C@@H](NC(=O)[C@H]1CN(C2CCCCC2)CC[C@@H]1NC(=O)c1cc(-c2ccc(F)cc2F)on1)C1CCC1` [Example 4.014] is 0.20 log units higher in pIC50: 6.24 for the first, 6.44 for the second. The second is the more potent here.

Compared with `O=C(N[C@H]1CCN(C2CCCCC2)C[C@@H]1C(=O)NC(CO)c1ccccn1)c1cc(-c2ccc(F)cc2F)on1` (stereo partly shown) [Example 4.013], `O=C(N[C@H]1CCN(C2CCCC2)C[C@@H]1C(=O)NC1(c2ccccn2)CC1)c1cc(-c2ccc(F)cc2F)on1` [Example 4.028] is 0.65 log units higher in pIC50: 6.84 for the first, 7.49 for the second. The second is the more potent here.

Compared with `CC(C)(C)NC(=O)[C@@H]1CN(C2CCCCC2)CC[C@H]1NC(=O)c1cc(-c2ccc(F)cc2F)on1` [Example 4.015], `CC(C)(C#N)NC(=O)[C@@H]1CN(C2CCCCC2)CC[C@H]1NC(=O)c1cc(-c2ccc(F)cc2F)on1` [Example 4.019] is 0.71 log units higher in pIC50: 6.11 for the first, 6.82 for the second.

Going from `CC1(NC(=O)[C@@H]2CN(C3CCCCC3)CC[C@H]2NC(=O)c2cc(-c3ccc(F)cc3F)on2)CC1` [Example 4.018] to `O=C(N[C@H]1CCN(C2CCCC2)C[C@@H]1C(=O)NC1(C2CC2)CC1)c1cc(-c2ccc(F)cc2F)on1` [Example 4.036], the pIC50 rises from 6.46 to 6.90 (0.44 log units).

`CC(NC(=O)[C@H]1CN(CC2CC2)CC[C@@H]1NC(=O)c1cc(-c2ccc(F)cc2F)on1)c1ccn[nH]1` (stereo partly shown) [Example 4.023] and `C[C@@H](NC(=O)[C@H]1CN(CC2CC2)CC[C@@H]1NC(=O)c1cc(-c2ccc(F)cc2F)on1)c1cccnc1` [Example 4.024] are within 0.2 log units of each other in pIC50: 7.16 for the first, 7.25 for the second.

Going from `O=C(N[C@H]1CCN(C2CCCC2)C[C@@H]1C(=O)NC1(c2ccncc2)CC1)c1cc(-c2ccc(F)cc2F)on1` [Example 4.026] to `O=C(N[C@H]1CCN(CC2CC2)C[C@@H]1C(=O)NC1(c2ccncc2)CC1)c1cc(-c2ccc(F)cc2F)on1` [Example 4.027], the pIC50 rises from 7.82 to 8.10 (0.28 log units). The second is the more potent here.

Compared with `O=C(N[C@H]1CCN(CC2CC2)C[C@@H]1C(=O)NC1(c2ccccn2)CC1)c1cc(-c2ccc(F)cc2F)on1` [Example 4.031], `CC(C)(NC(=O)[C@H]1CN(CC2CC2)CC[C@@H]1NC(=O)c1cc(-c2ccc(F)cc2F)on1)c1ccccn1` [Example 4.033] is 1.12 log units higher in pIC50: 8.40 for the first, 9.52 for the second. The second is the more potent here.

Going from `Cn1cc(C(C)(C)NC(=O)[C@H]2CN(C3CCCC3)CC[C@@H]2NC(=O)c2cc(-c3ccc(F)cc3F)on2)cn1` [Example 4.034] to `Cc1nc(C(C)(C)NC(=O)[C@H]2CN(C3CCCC3)CC[C@@H]2NC(=O)c2cc(-c3ccc(F)cc3F)on2)no1` [Example 4.035], the pIC50 rises from 6.59 to 7.25 (0.66 log units). The second is the more potent here.

`CC(NC(=O)[C@H]1CN(C2CCCC2)CC[C@@H]1NC(=O)c1cc(-c2ccc(F)cc2F)on1)C1CCCO1` (stereo partly shown) [Example 4.037] and `C#CC(C)NC(=O)[C@H]1CN(C2CCCC2)CC[C@@H]1NC(=O)c1cc(-c2ccc(F)cc2F)on1` (stereo partly shown) [Example 4.039] are within 0.2 log units of each other in pIC50: 6.55 for the first, 6.41 for the second.

`CC(NC(=O)[C@H]1CN(C2CCCC2)CC[C@@H]1NC(=O)c1cc(-c2ccc(F)cc2F)on1)c1ccn[nH]1` (stereo partly shown) [Example 4.041] gave a pIC50 of 7.02.

Reference: US11306078B2, “Piperidine CXCR7 receptor modulators” (IDORSIA PHARMACEUTICALS LTD., priority 2016, dated 2022)
